Measured values reported in PMC3914206.

How the values were obtained:
Assay type in all cases: binding
Parameters in all cases: KINOMEscan: ABL1(F317L)-phosphorylated / KINOMEscan: ABL1(H396P)-nonphosphorylated / KINOMEscan: ABL1(H396P)-phosphorylated / KINOMEscan: ABL1(M351T)-phosphorylated / KINOMEscan: ABL1(T315I)-phosphorylated / KINOMEscan: ABL1-nonphosphorylated / KINOMEscan: ABL1-phosphorylated / KINOMEscan: ACVR2A / KINOMEscan: ACVR2B / KINOMEscan: ADCK3 / KINOMEscan: ADCK4 / KINOMEscan: AKT1 / KINOMEscan: AKT3 / KINOMEscan: ALK / KINOMEscan: ARK5 / KINOMEscan: AURKA / KINOMEscan: AURKC / KINOMEscan: BIKE / KINOMEscan: BMPR1A / KINOMEscan: BMPR1B / KINOMEscan: BMX / KINOMEscan: BRK / KINOMEscan: BRSK1 / KINOMEscan: BRSK2 / KINOMEscan: CAMK1 / KINOMEscan: CAMK1D / KINOMEscan: CAMK1G / KINOMEscan: CAMK2A / KINOMEscan: CAMK2B / KINOMEscan: AAK1 / KINOMEscan: CAMK2D / KINOMEscan: CAMK2G / KINOMEscan: ABL1(F317I)-nonphosphorylated / KINOMEscan: ABL1(F317I)-phosphorylated / KINOMEscan: ABL1(F317L)-nonphosphorylated: unit: % Ctrl
Conditions in all cases: Compound Concentration 10 µM
panel of 442 kinases [1] = target: T1, panel of 442 kinases (Homo sapiens, UniProt P31749)
T1 construct: purchased KINOMEscan
T1 sequence (P31749 whole entry): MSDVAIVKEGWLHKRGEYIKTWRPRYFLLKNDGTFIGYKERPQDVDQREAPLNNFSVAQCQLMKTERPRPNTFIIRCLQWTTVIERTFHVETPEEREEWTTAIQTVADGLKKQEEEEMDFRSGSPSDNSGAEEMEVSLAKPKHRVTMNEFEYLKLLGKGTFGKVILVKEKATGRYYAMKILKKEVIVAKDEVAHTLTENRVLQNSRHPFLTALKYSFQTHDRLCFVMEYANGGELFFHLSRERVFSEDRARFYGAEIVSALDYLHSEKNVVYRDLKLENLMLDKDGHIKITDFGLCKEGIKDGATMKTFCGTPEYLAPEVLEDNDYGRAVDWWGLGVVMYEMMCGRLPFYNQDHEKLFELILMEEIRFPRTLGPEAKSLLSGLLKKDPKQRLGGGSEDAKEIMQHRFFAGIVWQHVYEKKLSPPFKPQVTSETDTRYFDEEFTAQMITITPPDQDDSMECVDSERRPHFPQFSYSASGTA
Description: (§1) We assessed the selectivity of members of this scaffold using the KINOMEscan methodology across a near comprehensive panel of 442 kinases [[18,27]].

panel of 442 kinases [2] = target: T2, panel of 442 kinases (Homo sapiens, UniProt Q08881)
T2 construct: purchased KINOMEscan
T2 sequence (Q08881 1-620): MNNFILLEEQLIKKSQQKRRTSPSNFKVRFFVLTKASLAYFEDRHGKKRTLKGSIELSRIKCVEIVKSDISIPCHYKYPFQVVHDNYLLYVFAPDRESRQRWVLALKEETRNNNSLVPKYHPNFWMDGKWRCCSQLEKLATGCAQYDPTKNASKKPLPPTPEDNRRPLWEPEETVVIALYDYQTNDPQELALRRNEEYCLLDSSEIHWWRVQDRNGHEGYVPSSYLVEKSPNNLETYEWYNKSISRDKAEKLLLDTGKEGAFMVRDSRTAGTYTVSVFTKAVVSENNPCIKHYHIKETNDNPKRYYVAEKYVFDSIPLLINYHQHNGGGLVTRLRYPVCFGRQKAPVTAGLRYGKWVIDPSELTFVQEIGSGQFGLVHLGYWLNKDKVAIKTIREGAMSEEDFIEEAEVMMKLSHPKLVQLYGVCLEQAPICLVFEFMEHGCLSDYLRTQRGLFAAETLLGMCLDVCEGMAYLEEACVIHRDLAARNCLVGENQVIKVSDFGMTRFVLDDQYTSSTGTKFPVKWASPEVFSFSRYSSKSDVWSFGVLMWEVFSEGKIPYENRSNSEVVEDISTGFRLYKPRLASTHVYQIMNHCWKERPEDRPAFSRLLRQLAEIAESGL
Description: as §1

panel of 442 kinases [3] = target: T3, panel of 442 kinases (Homo sapiens, UniProt Q00537)
T3 construct: purchased KINOMEscan
T3 sequence (Q00537 whole entry): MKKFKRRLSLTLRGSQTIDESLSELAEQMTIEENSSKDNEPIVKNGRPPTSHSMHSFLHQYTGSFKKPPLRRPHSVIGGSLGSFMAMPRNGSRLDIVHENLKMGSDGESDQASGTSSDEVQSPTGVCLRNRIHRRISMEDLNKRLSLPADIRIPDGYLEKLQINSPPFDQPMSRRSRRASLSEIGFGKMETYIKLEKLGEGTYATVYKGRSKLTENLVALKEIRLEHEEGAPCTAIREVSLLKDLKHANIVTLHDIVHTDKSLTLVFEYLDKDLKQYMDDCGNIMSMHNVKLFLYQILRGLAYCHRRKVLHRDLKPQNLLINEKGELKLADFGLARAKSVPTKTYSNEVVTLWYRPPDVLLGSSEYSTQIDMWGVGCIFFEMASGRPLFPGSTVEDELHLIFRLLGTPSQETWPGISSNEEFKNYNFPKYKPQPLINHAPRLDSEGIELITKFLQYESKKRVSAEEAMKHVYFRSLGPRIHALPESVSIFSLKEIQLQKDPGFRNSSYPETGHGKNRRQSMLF
Description: as §1

| Compound | KINOMEscan: AKT1 (panel of 442 kinases [1]) | KINOMEscan: ITK (panel of 442 kinases [2]) | KINOMEscan: PCTK2 (panel of 442 kinases [3]) |
| --- | --- | --- | --- |
| COc1cc(C(=O)N2CCC(N3CCN(C)CC3)CC2)ccc1Nc1ncc2c(n1)N(C)c1ccccc1C(=O)N2C [15 (LRRK2-IN-1)] | 79 | 82 | 83 |
| COc1cc(C(=O)N2CCC(N3CCN(C)CC3)CC2)ccc1Nc1ncc2c(n1)N1CCc3cccc(c31)C(=O)N2C [Compound 24] | 90 |  | 95 |
| COc1cc(C(=O)N2CCC(N3CCN(C)CC3)CC2)ccc1Nc1ncc2c(n1)N(C1CCCC1)c1ccccc1C(=O)N2C [Compound 25, 11-cyclopentyl-2-((2-methoxy-4-(4-(4-methylpiperazin-1-yl)piperidine-1-carbonyl)phenyl)amino)-5-methyl-5H-benzo[e]pyrimido[5,4-b][1,4]diazepin-6(11H)-one] | 100 | 100 | 80 |
| CCOc1cc(C(=O)N2CCC(N3CCN(C)CC3)CC2)ccc1Nc1ncc2c(n1)N(C1CCCC1)c1ccccc1C(=O)N2C [Compound 26] | 100 | 100 | 100 |
